Test results from paper PMC8899820, “Pharmacokinetics, Tissue Distribution, and Excretion Characteristics of a Radix Polygoni Multiflori Extract in Rats” (Frontiers in Pharmacology, 2022).
Like-named read-outs stand apart in the source and are kept apart here.

Key:
[1] = in vivo; settings: Sprague-Dawley, rat, po, 18 g/kg
Description: For the tissue distribution study, 18 rats were randomly divided into three groups (n = 6, each) and orally administered 18 g/kg RPM extract. The rats under isoflurane anesthesia were sacrificed by bleeding from the abdominal aorta at 5, 15, and 60 min (six rats per time point) after gavage with 18 g/kg RPM extract. Subsequently, the heart, liver, spleen, lung, kidney, brain, stomach, small intestine, bladder, and gonads (testes of male rats, and uterus and ovaries of female rats) were immediately collected. An accurately weighed amount of fresh tissue sample (0.25 g) was individually homogenized with normal saline (1 ml) and transferred (50 μL) as a tissue homogenate to 1.5 ml centrifuge tubes for use as the tissue samples. All tissue samples were stored at −70°C until analysis.
Samples were prepared using the protein precipitation process. […] The tissue samples were homogenized in four parts of ice-cold 0.9% saline solution and then centrifuged at 4°C and 12,000 × g for 10 min to obtain tissue homogenates. […] Tissue homogenate, urine, bile and fecal samples were subjected to a similar process as the rat plasma samples.
For the tissue distribution study, 18 rats were randomly divided into three groups (n=6, each), and orally administered with 18 g/kg RPM extract. The rats were sacrificed at 5, 15, 60 min after orally administering RPM. Subsequently, the heart, liver, spleen, lung, kidney, brain, stomach, small intestine, bladder, gonad (testes of male rats, uterus and ovaries of female rats) were immediately collected. An accurately weighed amount of fresh tissue sample (0.25 g) was individually homogenized with normal saline (1 mL) and transferred (50 μL) as a tissue homogenate to 1.5 mL centrifuge tubes for use as the tissue samples.

[2] = rat, in vivo, po, 36 g/kg; cited from earlier work
[3] = rat, in vivo, po
Excerpt: (§1) For the pharmacokinetic (PK) study, three groups (n = 6 each) of rats were orally administered RPM extract (6, 18, and 36 g/kg). In the plasma pharmacokinetics experiment, doses were 6, 18, and 36 g/kg for the single administration group and 18 g/kg for the continuous administration group. The doses were set at a subtoxic level ([Zhang et al., 2013]; [Wang et al., 2015]) to investigate the pharmacokinetic profiles of the constituents of RPM (36 g/kg group) and were approximately 60 times the upper dose (6 g/day) for humans recommended by the 2020 edition of Chinese Pharmacopoeia ([Chinese Pharmacopoeia Commission, 2020]), which was converted to a dose for rats based on body surface area conversion ([Reagan-Shaw et al., 2008]). In addition, the low and medium doses decreased in a certain proportion. Serial blood samples (∼120 μL; before dosing and at 5, 15, and 30 min, and 1, 2, 4, 6, 8, 12, and 24 h after administration) were collected in heparinized tubes from the orbital sinus under light isoflurane. The blood samples were centrifuged at 12000 g for 2 min, and the plasma fractions were decanted and frozen at −70°C until analysis.
(§2) Samples were prepared using the protein precipitation process. Rat plasma (50 μL) spiked with 10 μL of IS (puerarin 100 ng/ml) was extracted with 150 μL acetonitrile. After vortex shaking for 5 min and centrifugation at 14,000 g for 5 min, 150 μL of the organic layer was transferred to a clean tube and evaporated to dryness at 25°C under a stream of nitrogen. The residue was reconstituted in 50 μL of the initial mobile phase and subjected to another round of centrifugation at 14,000 g for 5 min, and 5 μL of the supernatant was injected for LC–MS/MS analysis.
(§3) The analysis was performed on an AB Sciex API 5500 Q Trap mass spectrometer (Toronto, Canada), interfaced with a Waters Acquity UPLC separation module.
(§4) The pharmacokinetic parameters, including the area under the plasma concentration-time curve from time zero to time t (AUC0-t) to time infinity (AUC0-∞), the time to reach the maximum plasma concentration (T max), the elimination half-time (t 1/2), and the maximum plasma concentration (C max), were calculated using the pharmacokinetic software Phoenix® WinNonlin®, version 7.0 (Scientific Consulting Inc., Apex, NC, United States). Data are expressed as the mean ± standard deviation (SD) for each group. The dose-exposure relationship was evaluated by the power function model combined with the confidence interval method ([Smith et al., 2000]; [Sethuraman et al., 2007]; [Hummel et al., 2009]). First, the administration dose, AUC0-∞ and C max were logarithmically transformed, and then a linear regression was performed to obtain the curve correlation coefficient (R^2), slope and 90% confidence interval (90% CI).

[4] = in vivo; settings: Sprague-Dawley, rat, po
Excerpt: as §1, §2, §3, §4

[5] = rat, in vivo
Description: as §4

- AUC(0-t) ([1]; both, AUC0-t in bladder): 0.0604 µM·h
- AUC(0-t) ([1]; both, AUC0-t in brain): 0.00583 µM·h
- AUC(0-t) ([1]; both, AUC0-t in heart): 0.65 µM·h
- AUC(0-t) ([1]; both, AUC0-t in intestine): 0.211 µM·h
- AUC(0-t) ([1]; both, AUC0-t in kidney): 0.587 µM·h
- AUC(0-t) ([1]; both, AUC0-t in liver): 1.6 µM·h
- AUC(0-t) ([1]; both, AUC0-t in lung): 0.58 µM·h
- AUC(0-t) ([1]; both, AUC0-t in spleen): 0.873 µM·h
- AUC(0-t) ([1]; both, AUC0-t in stomach): 0.783 µM·h
- AUC(0-t) ([1]; female, AUC0-t in ovary): 0.227 µM·h
- AUC(0-t) ([1]; female, AUC0-t in uterus): 0.104 µM·h
- AUC(0-t) ([1]; male, AUC0-t in testis): 0.0137 µM·h
- time at which C max was exhibited [3]: ≤ 20 min
- AUC(0-inf) ([4]; 6 g/kg): 0.0961 ± 0.0171 µM·h
- AUC(0-t) ([4]; 6 g/kg): 0.0872 ± 0.0215 µM·h
- Cmax ([4]; 6 g/kg): 41.2 ± 8.8 nM
- MRT inf ([4]; 6 g/kg): 6.87 ± 1.42 h
- Tmax ([4]; 6 g/kg): 0.25 h
- half-life ([4]; 6 g/kg): 5.07 ± 1.32 h
- AUC(0-inf) ([4]; 18 g/kg): 0.558 ± 0.499 µM·h
- AUC(0-t) ([4]; 18 g/kg): 0.416 ± 0.251 µM·h
- Cmax ([4]; 18 g/kg): 349 ± 216 nM
- MRT inf ([4]; 18 g/kg): 5.69 ± 1.57 h
- half-life ([4]; 18 g/kg): 3.78 ± 0.75 h
- Conclusion (dose-exposure relationship) [5]: Uncertainty of linear relationship
SMILES: O=C1c2cc(O)cc(O)c2C(=O)c2c(O)cc(CO)cc21 [Citreorosein]
- AUC0-∞ [2]: 0.468 ± 0.337 µM·h
- AUC(0-t) [2]: 0.458 ± 0.338 µM·h
- Cmax [2]: 521 ± 512 nM
